{
  "source": "the NIST ThermoML archive (doi:10.1016/j.fluid.2015.03.016)",
  "settings": "Liquid",
  "note": "Values joined by “and” are separate entries in the source; they are usually repeats but may differ in a detail not shown here. Equal entries are not always repeated. Numbers after ± are expanded uncertainties.",
  "data": [
    {"smiles": "CCCOC(=O)CCCCC(=O)OCCC", "note": "[dipropyl hexanedioate]", "values": [
      {"measurement": "viscosity", "setting": "303.14 K, 1110 kPa, Vibrating wire viscometry", "result": "3.606 ± 0.06 mPa·s and 3.607 ± 0.06 mPa·s"},
      {"measurement": "viscosity", "setting": "303.14 K, 1140 kPa, Vibrating wire viscometry", "result": "3.609 ± 0.06", "unit": "mPa·s"},
      {"measurement": "viscosity", "setting": "303.14 K, 5210 kPa, Vibrating wire viscometry", "result": "3.78 ± 0.063", "unit": "mPa·s"},
      {"measurement": "viscosity", "setting": "303.14 K, 5220 kPa, Vibrating wire viscometry", "result": "3.781 ± 0.063 mPa·s and 3.776 ± 0.063 mPa·s"},
      {"measurement": "viscosity", "setting": "303.14 K, 18280 kPa, Vibrating wire viscometry", "result": "4.327 ± 0.072", "unit": "mPa·s"},
      {"measurement": "viscosity", "setting": "303.14 K, 18290 kPa, Vibrating wire viscometry", "result": "4.33 ± 0.072 mPa·s and 4.331 ± 0.072 mPa·s"},
      {"measurement": "viscosity", "setting": "303.15 K, 2810 kPa, Vibrating wire viscometry", "result": "3.653 ± 0.061 mPa·s and 3.654 ± 0.061 mPa·s"},
      {"measurement": "viscosity", "setting": "303.15 K, 2820 kPa, Vibrating wire viscometry", "result": "3.657 ± 0.061", "unit": "mPa·s"},
      {"measurement": "viscosity", "setting": "303.15 K, 10310 kPa, Vibrating wire viscometry", "result": "3.975 ± 0.066", "unit": "mPa·s"},
      {"measurement": "viscosity", "setting": "303.15 K, 10320 kPa, Vibrating wire viscometry", "result": "3.972 ± 0.066", "unit": "mPa·s"},
      {"measurement": "viscosity", "setting": "303.15 K, 15230 kPa, Vibrating wire viscometry", "result": "4.218 ± 0.07", "unit": "mPa·s"},
      {"measurement": "viscosity", "setting": "303.15 K, 15260 kPa, Vibrating wire viscometry", "result": "4.213 ± 0.07", "unit": "mPa·s"},
      {"measurement": "viscosity", "setting": "303.15 K, 15310 kPa, Vibrating wire viscometry", "result": "4.218 ± 0.07", "unit": "mPa·s"},
      {"measurement": "viscosity", "setting": "313.15 K, 2710 kPa, Vibrating wire viscometry", "result": "2.934 ± 0.049 mPa·s and 2.931 ± 0.049 mPa·s"},
      {"measurement": "viscosity", "setting": "313.15 K, 15330 kPa, Vibrating wire viscometry", "result": "3.354 ± 0.056 mPa·s and 3.356 ± 0.056 mPa·s and 3.358 ± 0.056 mPa·s"},
      {"measurement": "viscosity", "setting": "313.15 K, 18290 kPa, Vibrating wire viscometry", "result": "3.441 ± 0.057 mPa·s and 3.443 ± 0.057 mPa·s"},
      {"measurement": "viscosity", "setting": "313.16 K, 1200 kPa, Vibrating wire viscometry", "result": "2.882 ± 0.048", "unit": "mPa·s"},
      {"measurement": "viscosity", "setting": "313.16 K, 1210 kPa, Vibrating wire viscometry", "result": "2.879 ± 0.048", "unit": "mPa·s"},
      {"measurement": "viscosity", "setting": "313.16 K, 1220 kPa, Vibrating wire viscometry", "result": "2.882 ± 0.048", "unit": "mPa·s"},
      {"measurement": "viscosity", "setting": "313.16 K, 2700 kPa, Vibrating wire viscometry", "result": "2.933 ± 0.049", "unit": "mPa·s"},
      {"measurement": "viscosity", "setting": "313.16 K, 5180 kPa, Vibrating wire viscometry", "result": "3.01 ± 0.05", "unit": "mPa·s"},
      {"measurement": "viscosity", "setting": "313.16 K, 5190 kPa, Vibrating wire viscometry", "result": "3.016 ± 0.05", "unit": "mPa·s"},
      {"measurement": "viscosity", "setting": "313.16 K, 10460 kPa, Vibrating wire viscometry", "result": "3.178 ± 0.053", "unit": "mPa·s"},
      {"measurement": "viscosity", "setting": "313.16 K, 10480 kPa, Vibrating wire viscometry", "result": "3.176 ± 0.053", "unit": "mPa·s"},
      {"measurement": "viscosity", "setting": "313.16 K, 10490 kPa, Vibrating wire viscometry", "result": "3.177 ± 0.053", "unit": "mPa·s"},
      {"measurement": "viscosity", "setting": "313.16 K, 18290 kPa, Vibrating wire viscometry", "result": "3.445 ± 0.058", "unit": "mPa·s"},
      {"measurement": "viscosity", "setting": "313.18 K, 101.33 kPa, Capillary tube (Ostwald / Ubbelohde) method", "result": "2.888 ± 0.089", "unit": "mPa·s"},
      {"measurement": "viscosity", "setting": "323.1 K, 101.33 kPa, Capillary tube (Ostwald / Ubbelohde) method", "result": "2.352 ± 0.073", "unit": "mPa·s"},
      {"measurement": "viscosity", "setting": "323.15 K, 1160 kPa, Vibrating wire viscometry", "result": "2.359 ± 0.039", "unit": "mPa·s"},
      {"measurement": "viscosity", "setting": "323.15 K, 1170 kPa, Vibrating wire viscometry", "result": "2.356 ± 0.039", "unit": "mPa·s"},
      {"measurement": "viscosity", "setting": "323.15 K, 1180 kPa, Vibrating wire viscometry", "result": "2.36 ± 0.039", "unit": "mPa·s"},
      {"measurement": "viscosity", "setting": "323.15 K, 15180 kPa, Vibrating wire viscometry", "result": "2.729 ± 0.046", "unit": "mPa·s"},
      {"measurement": "viscosity", "setting": "323.16 K, 2710 kPa, Vibrating wire viscometry", "result": "2.409 ± 0.04 mPa·s and 2.408 ± 0.04 mPa·s"},
      {"measurement": "viscosity", "setting": "323.16 K, 2720 kPa, Vibrating wire viscometry", "result": "2.412 ± 0.04", "unit": "mPa·s"},
      {"measurement": "viscosity", "setting": "323.16 K, 5260 kPa, Vibrating wire viscometry", "result": "2.464 ± 0.041", "unit": "mPa·s"},
      {"measurement": "viscosity", "setting": "323.16 K, 5270 kPa, Vibrating wire viscometry", "result": "2.462 ± 0.041", "unit": "mPa·s"},
      {"measurement": "viscosity", "setting": "323.16 K, 15200 kPa, Vibrating wire viscometry", "result": "2.731 ± 0.046", "unit": "mPa·s"},
      {"measurement": "viscosity", "setting": "323.17 K, 10210 kPa, Vibrating wire viscometry", "result": "2.598 ± 0.043", "unit": "mPa·s"},
      {"measurement": "viscosity", "setting": "323.17 K, 10220 kPa, Vibrating wire viscometry", "result": "2.597 ± 0.043", "unit": "mPa·s"},
      {"measurement": "viscosity", "setting": "323.17 K, 18240 kPa, Vibrating wire viscometry", "result": "2.814 ± 0.047", "unit": "mPa·s"},
      {"measurement": "viscosity", "setting": "323.17 K, 18260 kPa, Vibrating wire viscometry", "result": "2.816 ± 0.047", "unit": "mPa·s"},
      {"measurement": "viscosity", "setting": "323.17 K, 18270 kPa, Vibrating wire viscometry", "result": "2.812 ± 0.047", "unit": "mPa·s"},
      {"measurement": "viscosity", "setting": "333.14 K, 2610 kPa, Vibrating wire viscometry", "result": "2.006 ± 0.034", "unit": "mPa·s"},
      {"measurement": "viscosity", "setting": "333.14 K, 2620 kPa, Vibrating wire viscometry", "result": "2.009 ± 0.034", "unit": "mPa·s"},
      {"measurement": "viscosity", "setting": "333.15 K, 2620 kPa, Vibrating wire viscometry", "result": "2.009 ± 0.034", "unit": "mPa·s"},
      {"measurement": "viscosity", "setting": "333.15 K, 5110 kPa, Vibrating wire viscometry", "result": "2.05 ± 0.034 mPa·s and 2.052 ± 0.034 mPa·s"},
      {"measurement": "viscosity", "setting": "333.15 K, 5130 kPa, Vibrating wire viscometry", "result": "2.052 ± 0.034", "unit": "mPa·s"},
      {"measurement": "viscosity", "setting": "333.15 K, 15200 kPa, Vibrating wire viscometry", "result": "2.274 ± 0.038", "unit": "mPa·s"},
      {"measurement": "viscosity", "setting": "333.15 K, 15220 kPa, Vibrating wire viscometry", "result": "2.273 ± 0.038", "unit": "mPa·s"},
      {"measurement": "viscosity", "setting": "333.15 K, 18260 kPa, Vibrating wire viscometry", "result": "2.339 ± 0.039", "unit": "mPa·s"},
      {"measurement": "viscosity", "setting": "333.15 K, 18290 kPa, Vibrating wire viscometry", "result": "2.338 ± 0.039", "unit": "mPa·s"},
      {"measurement": "viscosity", "setting": "333.15 K, 18300 kPa, Vibrating wire viscometry", "result": "2.343 ± 0.039", "unit": "mPa·s"},
      {"measurement": "viscosity", "setting": "333.16 K, 1090 kPa, Vibrating wire viscometry", "result": "1.975 ± 0.033", "unit": "mPa·s"},
      {"measurement": "viscosity", "setting": "333.16 K, 1100 kPa, Vibrating wire viscometry", "result": "1.979 ± 0.033", "unit": "mPa·s"},
      {"measurement": "viscosity", "setting": "333.16 K, 1120 kPa, Vibrating wire viscometry", "result": "1.979 ± 0.033", "unit": "mPa·s"},
      {"measurement": "viscosity", "setting": "333.16 K, 10160 kPa, Vibrating wire viscometry", "result": "2.167 ± 0.036", "unit": "mPa·s"},
      {"measurement": "viscosity", "setting": "333.16 K, 10180 kPa, Vibrating wire viscometry", "result": "2.163 ± 0.036", "unit": "mPa·s"},
      {"measurement": "viscosity", "setting": "333.16 K, 10190 kPa, Vibrating wire viscometry", "result": "2.165 ± 0.036", "unit": "mPa·s"},
      {"measurement": "viscosity", "setting": "333.16 K, 15220 kPa, Vibrating wire viscometry", "result": "2.273 ± 0.038", "unit": "mPa·s"},
      {"measurement": "viscosity", "setting": "333.22 K, 101.33 kPa, Capillary tube (Ostwald / Ubbelohde) method", "result": "1.97 ± 0.061", "unit": "mPa·s"}
    ]}
  ]
}
